Assay results as given in article PMC12440207 (PLOS Pathogens, 2025).
Entries after “also recorded” stand apart in the source; their conditions may differ.

How the values were obtained:
Bma-SLO-1F [1] = molecular target: T1, Bma-SLO-1F (Brugia malayi, UniProt A0A0J9Y9H3); experiment: Two-electrode voltage clamp of Xenopus oocytes expressing Bma-SLO-1F; assay type: cell-based
Protocol: (§1) Defolliculated Xenopus laevis oocytes were purchased from Ecocyte Bioscience (Austin, TX, USA) and Xenopus 1 Corp (Dexter, MI, USA). Heterologous expression of the Bma-SLO-1F receptor was achieved by injecting 15 ng of cRNA in a total volume of 50 nL in nuclease-free water. Each oocyte was microinjected into the cytoplasm of the animal pole region using a Drummond Nanoject II microinjector (Drummond Scientific, Broomall, PA, USA). After injection, oocytes were incubated at 17°C in a sterile 96-well culture plate containing 300 μl of incubation solution (100 mM NaCl, 2 mM KCl, 1.8 mM CaCl2.2H2O, 1 mM MgCl2.6H2O, 5 mM HEPES, 2.5 mM Na pyruvate, 100 U/mL penicillin and 100 μg/mL streptomycin, pH 7.5) in each well. Incubation solution was changed daily during the period of incubation. The same procedure was also conducted for the Ovo-SLO-1A receptor. Experiments were performed on oocytes within 5 – 6 days post injection.
(§2) TEVC was conducted at room temperature by impaling oocytes with two microelectrodes; a current injecting electrode, Im, used to inject the required current for holding the membrane at a set voltage, and a voltage sensing electrode, Vm. The microelectrodes were pulled using a Flaming/Brown horizontal electrode puller (Model P-97; Sutter Instruments, Novato, CA, USA) and filled with 3 M KCl. Each electrode tip was broken with a piece of Kimwipe paper (Kimtech Science, Fisher) to achieve a resistance of 2 – 5 MΏ in recording solution (88 mM NaCl, 2.5 mM KCl, 1 mM MgCl2.6H2O, 1.8 mM CaCl2.2H2O and 5 mM HEPES, at pH 7.4). […] Amplified signals were converted from analog to digital format by a Digidata 1322A digitizer (Molecular Devices, CA, USA) and all data were acquired on a desktop computer with the Clampex 10.3 data acquisition software (Molecular Devices, Sunnyvale, CA, USA).
(§3) For our recordings, the times for drug applications were selected to allow the currents recorded to reach a stable plateau. At the beginning of experiments the Xenopus oocytes were perfused with drug free recording solution for 1 min, to obtain stable initial resting currents. […] Washing of the Xenopus oocytes then followed for 3 mins.
(§4) GraphPad Prism 10.1.1 software (GraphPad Software Inc., USA) was used to generate Concentration-response curves using the log agonist vs. response equation (variable slope) to estimate EC50, Rmax and Hillslope (nH) values for both Bma-SLO-1F and Ovo-SLO-1A channels. We also used the unpaired two-tailed Student’s t-test to test for statistical significance. A p value < 0.05 was deemed significant. The analyzed results were expressed as mean ± S.E.M.
(§5) The results were expressed as the mean ± S.E.M.
(§6) Results were expressed as the mean ± S.E.M.

Ovo-SLO-1A [2] = molecular target: T2, Ovo-SLO-1A (Onchocerca volvulus, UniProt A0A2K6W0E9); experiment: Two-electrode voltage clamp of Xenopus oocytes expressing Ovo-SLO-1A; assay type: cell-based
Protocol: as §1, §2, §3, §4, §5, §6

[3] = test system: water injected oocytes (endogenous channels of Xenopus laevis); experiment: Electrophysiology of water injected oocytes (control); assay type: cell-based
Protocol: as §2
(§7) Briefly, oocytes expressing either Bma-SLO-1F or Ovo-SLO-1A channels were impaled and subjected to a current-voltage protocol that consisted of 500 ms voltage steps from -120 to + 60 mV in 20 mV increments, starting from a holding position of -70 mV for 1 s between each step. Plateau currents were recorded at a frequency of 5000 Hz during clamping and perfused with recording solution: (88 mM NaCl, 2.5 mM, KCl, 1 mM MgCl2.6H2O, 1.8 mM CaCl2.2H2O and 5 mM HEPES, at pH 7.4). The results of the voltage steps were evaluated and analyzed using the ClampFit 10.3 software (Molecular Devices), whereas current-voltage curves (IVCs) were prepared using Graphpad Prism 10.1.1(GraphPad Software, Inc., USA).
(§8) To obtain current-voltage curves (IVCs) from our voltage steps experiments, plateau currents elicited at each step potential (-120 to + 60 mV) were acquired for individual oocytes in Clampfit 10.3 (Molecular Devices, Sunnyvale, CA, USA). […] Subsequently, statistical differences for slope values among treatment groups were analyzed using ANOVA, followed by the Tukey multiple comparison post-hoc test. Results were expressed as mean ± S.E.M.

mammalian BK channel = test system: mammalian BK channel; design: method as in PMID 24561672; details: mammalian BK channel activator; cited from earlier work
Bma-SLO-1F [4] = molecular target: T1, Bma-SLO-1F; experiment: Voltage step electrophysiology (current-voltage relationship), Bma-SLO-1F oocytes; assay type: cell-based
Protocol: as §7
as §8, with “USA). Mean currents for all replicate oocytes were plotted against their corresponding voltage step potentials to obtain IVCs using Graphpad Prism 10.1.1 software (GraphPad Software, Inc., USA).” for “USA).”

Ovo-SLO-1A [5] = molecular target: T2, Ovo-SLO-1A; experiment: Voltage step electrophysiology (current-voltage relationship), Ovo-SLO-1A oocytes; assay type: cell-based; details: 1 µM emodepside
Protocol: as §7
as §8, with “USA). Mean currents for all replicate oocytes were plotted against their corresponding voltage step potentials to obtain IVCs using Graphpad Prism 10.1.1 software (GraphPad Software, Inc., USA).” for “USA).”

[6] = 3 µM GoSlo-SR-5-69 + 0.3 µM emodepside, Ca2+ replaced with equimolar Co2+
[7] = 3 µM GoSlo-SR-5-69 alone, +20 mV
[8] = 3 µM GoSlo-SR-5-69 on 0.3 µM emodepside response
[9] = 0.3 µM emodepside + 3 µM GoSlo-SR-5-69 co-applied, n = 6
[10] = absence of GoSlo-SR-5-69, modulation experiment, n = 6
[11] = emodepside alone, +20 mV, n = 10
[12] = emodepside concentration-response, n = 10
[13] = in the presence of 3 µM GoSlo-SR-5-69, n = 6

T1 sequence (A0A0J9Y9H3 entry or part of it): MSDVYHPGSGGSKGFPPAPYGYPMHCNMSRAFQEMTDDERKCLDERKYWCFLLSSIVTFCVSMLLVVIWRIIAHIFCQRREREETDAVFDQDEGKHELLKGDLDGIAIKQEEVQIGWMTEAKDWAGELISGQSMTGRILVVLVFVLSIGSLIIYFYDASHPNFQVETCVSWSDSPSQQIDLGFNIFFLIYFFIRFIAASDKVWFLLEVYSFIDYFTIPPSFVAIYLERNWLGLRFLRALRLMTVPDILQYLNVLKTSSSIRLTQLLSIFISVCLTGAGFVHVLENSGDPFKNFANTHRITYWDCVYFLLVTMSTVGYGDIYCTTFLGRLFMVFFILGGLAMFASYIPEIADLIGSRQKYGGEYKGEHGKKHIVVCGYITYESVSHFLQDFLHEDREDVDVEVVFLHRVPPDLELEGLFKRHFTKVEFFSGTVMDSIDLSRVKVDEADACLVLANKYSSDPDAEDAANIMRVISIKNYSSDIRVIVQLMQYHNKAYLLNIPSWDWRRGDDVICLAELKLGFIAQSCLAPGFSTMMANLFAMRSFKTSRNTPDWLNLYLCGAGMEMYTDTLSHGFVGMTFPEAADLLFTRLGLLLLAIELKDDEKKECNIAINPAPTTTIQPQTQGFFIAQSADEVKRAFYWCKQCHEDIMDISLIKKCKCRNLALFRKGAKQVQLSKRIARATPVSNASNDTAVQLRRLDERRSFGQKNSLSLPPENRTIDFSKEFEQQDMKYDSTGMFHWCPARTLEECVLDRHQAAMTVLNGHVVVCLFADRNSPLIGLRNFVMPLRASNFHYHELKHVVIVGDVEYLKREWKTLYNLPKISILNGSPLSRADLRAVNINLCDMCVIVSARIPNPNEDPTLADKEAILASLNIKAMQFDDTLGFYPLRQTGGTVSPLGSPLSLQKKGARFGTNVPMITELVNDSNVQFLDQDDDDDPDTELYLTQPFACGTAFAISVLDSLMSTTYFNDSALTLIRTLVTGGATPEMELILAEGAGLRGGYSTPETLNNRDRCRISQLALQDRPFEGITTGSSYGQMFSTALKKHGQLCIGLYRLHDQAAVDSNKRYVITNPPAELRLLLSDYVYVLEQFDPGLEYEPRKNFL
T2 sequence (A0A2K6W0E9 entry or part of it): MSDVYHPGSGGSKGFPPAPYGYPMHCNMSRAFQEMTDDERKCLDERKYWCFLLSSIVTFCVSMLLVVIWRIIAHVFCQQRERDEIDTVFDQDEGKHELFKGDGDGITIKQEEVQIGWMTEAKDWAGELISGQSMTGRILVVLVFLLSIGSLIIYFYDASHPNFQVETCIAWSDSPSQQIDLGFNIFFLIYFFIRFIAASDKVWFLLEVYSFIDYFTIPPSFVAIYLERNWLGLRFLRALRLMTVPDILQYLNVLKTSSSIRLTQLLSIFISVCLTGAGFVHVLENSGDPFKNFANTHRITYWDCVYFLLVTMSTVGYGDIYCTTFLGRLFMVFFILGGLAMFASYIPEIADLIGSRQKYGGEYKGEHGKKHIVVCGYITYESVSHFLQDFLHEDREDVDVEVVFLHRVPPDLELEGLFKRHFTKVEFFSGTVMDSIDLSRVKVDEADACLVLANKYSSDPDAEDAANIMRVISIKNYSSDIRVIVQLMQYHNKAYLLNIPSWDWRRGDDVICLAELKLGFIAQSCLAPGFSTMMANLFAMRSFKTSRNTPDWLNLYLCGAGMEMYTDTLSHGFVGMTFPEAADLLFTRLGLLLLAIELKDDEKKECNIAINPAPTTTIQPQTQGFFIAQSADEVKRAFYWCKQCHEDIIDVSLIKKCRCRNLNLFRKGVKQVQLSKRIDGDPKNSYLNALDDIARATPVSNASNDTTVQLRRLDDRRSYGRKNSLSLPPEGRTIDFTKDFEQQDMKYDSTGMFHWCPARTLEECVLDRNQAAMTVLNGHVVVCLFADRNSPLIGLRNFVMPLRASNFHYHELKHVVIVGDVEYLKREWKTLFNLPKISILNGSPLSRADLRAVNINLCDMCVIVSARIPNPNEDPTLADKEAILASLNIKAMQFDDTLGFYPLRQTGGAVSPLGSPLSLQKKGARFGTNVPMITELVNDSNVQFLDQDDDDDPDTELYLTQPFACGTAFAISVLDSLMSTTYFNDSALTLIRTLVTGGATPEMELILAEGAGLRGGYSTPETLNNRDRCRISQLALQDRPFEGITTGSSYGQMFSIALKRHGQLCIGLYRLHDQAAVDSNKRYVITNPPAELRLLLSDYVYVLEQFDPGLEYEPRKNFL

Nc1c(S(=O)(=O)O)cc(Nc2ccc3c(c2)CCCC3)c2c1C(=O)c1ccccc1C2=O [GoSlo-SR-5–69]
increase in emodepside Rmax (Bma-SLO-1F [1]; 3 µM GoSlo-SR-5-69): 1.7 fold
increase in sensitivity to emodepside (EC50 shift) (Bma-SLO-1F [1]; 3 µM GoSlo-SR-5-69): 7 fold
potentiation of emodepside responses in the absence of extracellular Ca2+ (Bma-SLO-1F [1]; [6]): still potentiated
agonist activity (channel activation) alone (Bma-SLO-1F [1]; [7]): lacks agonist activity; also recorded: does not by itself activate
percentage increase in peak currents of the emodepside response (Bma-SLO-1F [1]; [8]): 200%
change in emodepside Rmax (Ovo-SLO-1A [2]; 3 µM GoSlo-SR-5-69): significantly increased
shift in emodepside EC50 (Ovo-SLO-1A [2]; 3 µM GoSlo-SR-5-69): did not cause a significant shift; also recorded: remained unchanged
potentiation of emodepside responses in the absence of extracellular Ca2+ (Ovo-SLO-1A [2]; [6]): still potentiated
agonist activity (channel activation) alone (Ovo-SLO-1A [2]; [7]): lacks agonist activity; also recorded: does not by itself activate
percentage increase in peak currents of the emodepside response (Ovo-SLO-1A [2]; [8]): 65.2%
current produced in water injected oocytes ([3]; 3 µM GoSlo-SR-5-69, +20 mV, also seen in SLO-1 expressing oocytes): slowly inactivating inward current
EC50 (mammalian BK channel): 251 nM

emodepside
current (Imax) response (Bma-SLO-1F [1]; [9]): 2799 ± 100 nA
current (Imax) response (Bma-SLO-1F [1]; 0.3 µM emodepside alone, n = 6): 954 ± 355 nA
Rmax of emodepside (Bma-SLO-1F [1]; [10]): 2679 ± 318 nA
maximum response (Rmax) (Bma-SLO-1F [1]; [11]): 6446 ± 287 nA
Hillslope (Bma-SLO-1F [1]; [12]): 1.1 ± 0.1
Rmax of emodepside (Bma-SLO-1F [1]; [13]): 4493 ± 433 nA
current response (Ovo-SLO-1A [2]; [9]): 6735 ± 272 nA
current response (Ovo-SLO-1A [2]; 0.3 µM emodepside alone, n = 6): 4170 ± 355 nA
sensitivity of Ovo-SLO-1A to emodepside relative to Bma-SLO-1F (EC50 ratio) (Ovo-SLO-1A [2]; Ovo-SLO-1A vs Bma-SLO-1F): 3.5 times
Rmax of emodepside (Ovo-SLO-1A [2]; [10]): 2454 ± 87 nA
maximum response (Rmax) (Ovo-SLO-1A [2]; [11]): 10762 ± 478 nA
Hillslope (Ovo-SLO-1A [2]; [12]): 1.2 ± 0.1
Rmax of emodepside (Ovo-SLO-1A [2]; [13]): 4928 ± 830 nA
response of water injected oocytes ([3]; 0.3 µM emodepside, +20 mV): no response
effect on current and conductance of water injected oocytes ([3]; 1 µM emodepside, voltage steps): little or no agonist effects; also recorded: no detectable change
slope conductance (Bma-SLO-1F [4]; 1 µM emodepside, voltage steps -120 to +60 mV, n = 6 (basal 2.4 ± 0.3 µS)): 12 ± 1.0 µS
reversal potential (Bma-SLO-1F [4]; all current voltage plots, with and without 1 µM emodepside): ~-72 mV
reversal potential (Ovo-SLO-1A [5]; no change from basal): -71 mV
slope conductance (Ovo-SLO-1A [5]; voltage steps -120 to +60 mV, n = 6 (basal 26 ± 2.9 µS)): 61 ± 4.4 µS
